Where two headings read alike, the source gives them in different places.
Assays:
LTD4 receptors = target: T1, LTD4 receptors (Cavia porcellus, UniProt Q2NNR5); test: Antagonism of LTD4 (guinea pig ileum and trachea, pA2); details: *Estimated; negative log of KB; antagonist 30 minute incubation
T1 construct: A section of terminal ileum was removed, the lumen cleaned, and the tissue divided into 2.5 cm segments; from tissue; host or cells: ileum and trachea of guinea pig (ileum: male Hartley)
T1 sequence (Q2NNR5 1-340): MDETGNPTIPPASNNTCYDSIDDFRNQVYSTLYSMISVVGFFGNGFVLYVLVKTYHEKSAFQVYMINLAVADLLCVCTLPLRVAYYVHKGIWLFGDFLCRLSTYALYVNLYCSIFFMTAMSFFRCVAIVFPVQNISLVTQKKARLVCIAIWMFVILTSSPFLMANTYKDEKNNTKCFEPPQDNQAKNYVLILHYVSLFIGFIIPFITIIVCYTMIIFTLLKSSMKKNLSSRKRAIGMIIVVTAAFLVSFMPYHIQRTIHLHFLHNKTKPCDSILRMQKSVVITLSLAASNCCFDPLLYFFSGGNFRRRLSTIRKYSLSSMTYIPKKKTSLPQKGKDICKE
Protocol: Male, Hartley guinea pigs weighing 200-450 grams were killed by decapitation. A section of terminal ileum was removed, the lumen cleaned, and the tissue divided into 2.5 cm segments. The ilea were mounted in 10 ml tissue baths containing Krebs-bicarbonate solution of the following composition in mmoles/liter: KCl, 4.6; CaCl2 ·2H2 O, 1.2; KH2 PO4, 1.2; MgSO4 ·7H2O, 1.2; NaCl, 118.2; NaHCO3, 24.8; and dextrose, 10.0. The bath fluid was maintained at 37° C. and aerated with 95 percent oxygen and 5 percent CO2 In addition, the buffer contained 1×10^-6 M atropine to reduce ileal spontaneous activity. Isometric measurements were made with a Grass FT03C. force-displacement transducer and recorded on a Grass polygraph as change in grams of force. A passive force of 0.5 g was applied to the tissues. After an appropriate equilibration period, single submaximal control responses to pure LTD4 were obtained. Following a five minute exposure of the ileum to an experimental drug, the control concentration of LTD4 was added to the tissue bath. The response of the ileum to LTD4 in the presence of the drug was compared to the response in the absence of the drug.
A more detailed analysis of LTD4 antagonism was then made. In these experiments, cumulative concentration-response curves were obtained to LTD4 in guinea pig ileum and trachea. This was followed by a 30 minute incubation with various concentrations of the experimental drug. The concentration response curve to LTD4 was then repeated in the presence of the antagonist. Only one concentration of antagonist was used on a single tissue. KB values were calculated by the method of Furchgott [Ann. N.Y. Acad. Sci., 139, 553 (1967)] using the following equation. [formula]
Dose ratio refers to the concentration of agonist required to elicit 50 percent of the maximal response ED50) in the presence of the antagonist divided by the ED50 in the absence of the antagonist.

[1] = target: T2, specific receptor on the membrane of human neutrophils (leukotriene B4) (Homo sapiens, UniProt Q15722); test: Inhibition of Binding of ^3 H-LTB4 to Peripheral Human Neutrophils; details: read-out: LTB4 Binding Inhibition
T2 construct: Freshly-prepared buffy coat layers from two individuals were obtained from a local blood donor center; endogenous in cells; host or cells: intact human peripheral blood neutrophils from buffy coats of two donors
T2 sequence (Q15722 whole entry): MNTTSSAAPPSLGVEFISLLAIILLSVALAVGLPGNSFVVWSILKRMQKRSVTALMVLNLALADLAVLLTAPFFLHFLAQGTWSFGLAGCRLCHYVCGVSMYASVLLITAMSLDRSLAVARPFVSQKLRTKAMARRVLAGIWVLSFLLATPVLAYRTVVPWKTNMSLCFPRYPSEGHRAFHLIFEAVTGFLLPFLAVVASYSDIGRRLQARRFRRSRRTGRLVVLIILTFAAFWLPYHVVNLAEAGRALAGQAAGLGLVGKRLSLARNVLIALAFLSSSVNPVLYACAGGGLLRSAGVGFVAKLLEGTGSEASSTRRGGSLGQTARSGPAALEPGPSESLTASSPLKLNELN
Protocol: Cells used in the assay were isolated by standard techniques of centrifugation on Ficoll-Hypaque, dextran 70 sedimentation and hypotonic lysis. The following procedure was used. Freshly-prepared buffy coat layers from two individuals were obtained from a local blood donor center. The cells were mixed and diluted to 484 ml with phosphate buffered saline containing heparin (10 units/ml) and heat-inactivated calf serum (5%). This was divided into 20 ml aliquots and the aliquots layered on top of Ficoll-Paque (12 ml). The material was then centrifuged at 500 g for 40 minutes at room temperature. The resulting upper layer of platelets and mononuclear cells was discarded. The lower layer containing erythrocytes and neutrophils was retained. Buffer was added (1 ml per 4 ml of lower layer) and the suspension mixed. For each milliliter of this mixture, 0.33 ml of 6% Macrodex was added. After stirring, the cells were allowed to sediment for 1 hour at 37° C. The resulting erythrocyte pellet was discarded and the neutrophil enriched supernatant fluid centrifuged at 500 g for 10 minutes at 4° C. Erythrocytes still present in this cell pellet were lysed by incubating the cells with 5-8 ml ice-cold distilled water for 30-45 seconds. Subsequently, the volume was made up to 50 ml by addition of ice-cold buffer and the cells resuspended. The suspension was then centrifuged at 300 g for 10 minutes at 4° C. The cells were finally resuspended at a cell density of 2×10^7 cells/ml in the assay buffer This buffer consisted of Hanks' balanced salt solution and 0.1% ovalbumin (pH 7.3).
The amount of bound ^3 H-LTB4 was then measured and compared with the amount bound in the absence of test compound. The assay was carried out in microcentrifuge tubes by adding first 10 μl test compound dissolved in DMSO, followed by adding 20 μl ^3 H-LTB4 diluted in assay buffer, and finally adding 500 μl of the cell suspension. At the end of the 10 minutes incubation, 300 μl of a mixture of dibutyl and dinonyl phthalate (7:2) were added and the tubes centrifuged for 2 minutes in a microcentrifuge. The radioactivity bound to the cell pellet was measured by scintillation spectroscopy. Appropriate corrections for nonspecific bonding of ^3 H-LTB4 were made.

[2] = system: LTB4 induced cell aggregation (neutrophils); test: LTB4 Induced Aggregation Assay (neutrophils); assay type: cell-based, guinea pig; details: Cavia porcellus, Neutrophil; for inhibition at 10 µM: drug concentration 10^-5 M; for inhibition at 1 µM: drug concentration 10^-6 M; for inhibition at 0.1 µM: drug concentration 10^-7 M
Protocol: Neutrophils were elicited by intraperitoneally injecting 20 ml of Dulbecco's calcium and magnesium deficient phosphate buffered saline (PBS) containing 2% oyster glycogen into each of two male Hartley guinea pigs. Eighteen hours later, cells accumulating in the peritoneal cavity were harvested by washing the peritoneum with approximately 100 ml of PBS containing 10 units/ml of heparin. The cells were centrifuged at 200 g for 8 min. and the supernatant fluid discarded. Erythrocytes present in the pellet were lyzed by vigorous agitation of the cells in 9 ml of ice-cold distilled water for approximately 30 seconds. Physiological osmolarity was restored by adding 1.5 ml of 0.6 M KCl. Twelve milliliters of PBS were added and the resuspended cells centrifuged at 200 g for 8 min. at 4°. The pellet was resuspended in 5 ml PBS. The cell concentration was determined and additional buffer added to make the concentration […]; cells per ml.
The aggregation assay was carried out by measuring the amount of LTB4 induced cell aggregation with a Payton single channel aggregometer, model 300B. The apparatus was calibrated by placing a cuvette containing the cell suspension in it and adjusting the zero knob so that the recorder pen rested at 1 mV. A cuvette containing 20% less cells was then inserted into the aggregometer and the output knob adjusted so that the recorder pen rested at 9 mV. With these settings an 8 mV change causes the recorder pen to move 200 mm. When conducting an assay, 0.5 ml of cell suspension (5×10^6 cells) was added to each cuvette. Five microliters of a solution of test compound were then added. Most compounds were initially dissolved in DMSO at 1×10^-2 M and then diluted appropriately with PBS so that the test compound concentration was 1×10^-5 to 1×10^-7 M and the test DMSO concentration was 0.1% or less. A few of the more water insoluble compounds were first dissolved in DMSO at 1 to 6×10^-3 M and then diluted appropriately with PBS. The test concentration of DMSO was never higher than 1%. After a 2 minute equilibration period of cells and test compound, 5 μl of a solution containing CaCl2 (100 mM) and MgCl2 (50 mM) were added. One minute later, 5 μ l of PBS containing LTB4 (3×10^-7 M) were added. The change occurring in the amount of light transmitted during the subsequent minute was measured. […] During a typical experiment, several measurements of the amount of aggregation induced by LTB4 were made and an average value determined. The effect of a test compound on this aggregation was determined by the following formula: [formula]

[3] = drug concentration 10^-5 M, 0.1-0.2 nM ^3 H-LTB4, 10 minutes at 4° C
[4] = drug concentration 10^-6 M, 0.1-0.2 nM ^3 H-LTB4, 10 minutes at 4° C
[5] = drug concentration 10^-7 M, 0.1-0.2 nM ^3 H-LTB4, 10 minutes at 4° C

Compound	Kb (LTD4 receptors)	inhibition at 10 µM [1, 3]	inhibition at 1 µM [1, 4]	inhibition at 0.1 µM [1, 5]	inhibition at 10 µM [2]	inhibition at 1 µM [2]	inhibition at 0.1 µM [2]	inhibition at 10 µM [1]	inhibition at 0.1 µM [1]	inhibition at 1 µM [1]
CCCCCCCCCCOc1ccc(C(=O)c2cccc(C(=O)OCC)c2)cc1CCCC(=O)OCC [Example 7, 2-(Decyloxy)-5-[3-(ethoxycarbonyl)benzoyl]benzenebutanoic acid, ethyl ester]	158 nM	–	–	–	–	–	–	–	–	–
CCCCCCCCCCOc1ccc(C(=O)c2cccc(C(=O)O)c2)c(CC(=O)O)c1 [Example 21, 2-(3-Carboxybenzoyl)-5-(decyloxy)benzeneacetic acid]	1410 nM	74%	23%	–	–	–	–	–	–	–
CCCCCCCCCCOc1ccc(C(=O)c2cccc(C(=O)O)c2)cc1CCCC(=O)O [Example 23, 5-(3-Carboxybenzoyl)-2-(decyloxy)benzenebutanoic acid]	–	87%	52%	4%	92%	46%	–	–	–	–
CCCCCCCCCCOc1ccc(C(=O)c2cccc(-c3nnn[nH]3)c2)cc1CC(=O)O [Example 24, 2-(Decyloxy)-5-[3-(1H-tetrazol-5-yl)benzoyl]benzeneacetic acid]	398 nM	93%	28%	–	–	–	–	–	–	–
CCCCCCCCCCOc1ccc(C(=O)c2cccc(Cc3nnn[nH]3)c2)cc1CCC(=O)O [Example 25, 2-(Decyloxy)-5-[3-(1H-tetrazol-5-ylmethyl)benzoyl]benzenepropanoic acid]	631 nM	–	–	–	–	–	–	–	–	–
CCCCCCCCCCOc1ccc(C(=O)Cc2ccccc2C(=O)O)cc1CCC(=O)O [Example 34, 5-[(2-Carboxyphenyl)acetyl]-2-(decyloxy)benzenepropanoic acid]	1910 nM	–	–	–	–	–	–	–	–	–
CCCCCCCCCCOc1ccc(C(O)c2cccc(C(=O)O)c2)cc1CCC(=O)O (stereo not drawn) [Example 46, 5-[(3--Carboxyphenyl)hydroxymethyl]-2-(decyloxy)benzenepropanoic acid]	–	91%	55%	13%	–	73%	7%	–	–	–
CCCCCCCCCCOc1ccc(C(O)c2ccc(C(=O)O)cc2)cc1CC(=O)O (stereo not drawn) [Example 47, 5-[(4-Carboxyphenyl)hydroxymethyl]-2-(decyloxy)benzeneacetic acid]	–	59%	2%	–	80%	50%	2%	–	–	–
C=C(c1cccc(C(=O)O)c1)c1ccc(OCCCCCCCCCC)c(CCC(=O)O)c1 [Example 54, 5-[1-(3-Carboxyphenyl)ethenyl]-2-(decyloxy)benzenepropanoic acid]	–	71%	37%	-3%	–	88%	12%	–	–	–
CCOC(=O)CCc1cc(C(=O)c2cccc(C(=O)OCC)c2)ccc1OCCCCCCc1ccc(Cl)cc1 [Example 66, 2-{[6-(4-Chlorophenyl)hexyl]oxy}-5-[3-(ethoxycarbonyl)benzoyl]benzenepropanoic acid, ethyl ester]	575 nM	–	–	–	–	–	–	–	–	–
O=C(O)CCc1cc(C(=O)c2cccc(C(=O)O)c2)ccc1OCCCCCCc1ccccc1 [Example 75, 5-(3-Carboxybenzoyl)-2-[6-(phenylhexyl)-oxy]benzenepropanoic acid]	–	–	82%	36%	93%	69%	15%	97%	–	–
COc1ccc(C=CCCCCOc2ccc(C(=O)c3cccc(C(=O)O)c3)cc2CCC(=O)O)cc1 [Example 79, 5-(3-Carboxybenzoyl)-2-{[6-(4-methoxyphenyl)-5-hexenyl]oxy}benzenepropanoic acid]	–	–	–	–	92%	87%	46%	100%	92%	97%
O=C(O)CCc1cc(C(=O)c2cccc(C(=O)O)c2)ccc1OCCCCCCc1ccc(Cl)cc1 [Example 81, 2-{[6-(4-Chlorophenyl)hexyl]oxy}-5-(3-carboxybenzoyl)benzenepropanoic acid]	–	106%	91%	42%	76%	63%	8%	–	–	–
C[S+]([O-])c1ccc(C=CCCCCOc2ccc(C(=O)c3cccc(C(=O)O)c3)cc2CCC(=O)O)cc1 (stereo not drawn) [Example 90, 5-(3-Carboxybenzoyl)-2-{[6-(4-methylsulfinylphenyl)-5-hexenyl]oxy}benzenepropanoic acid]	–	98%	96%	90%	85%	79%	9%	–	–	–

— patent US5171882A, “Leukotriene antagonists” (Eli Lilly and Company, priority 1990, dated 1992)
